Assays:
MOLT-4 = experiment: NCI 60 five-dose screen MOLT-4; assay type: cell-based; conditions: Homo sapiens
full NCI 60 cell panel = experiment: NCI 60 Cell One-dose screen; assay type: cell-based, human; conditions: single high dose 10^−5 M, NCI 60 panel
Text: Compounds were submitted to the NCI 60 Cell screen and tested at a single high dose (10^−5 M) in the full NCI 60 cell panel (see the following reference for details of using NCI 60 human tumor cell lines for screening anticancer drugs: Shoemaker R H. The NCI60 human tumor cell line anticancer drug screen. Nature Rev Cancer 2006; 6: 813-23). The One-dose data is reported as a mean graph of the percent growth of treated cells. The number reported for the One-dose assay is growth relative to the no-drug control, and relative to the time zero number of cells. This allows detection of both growth inhibition (values between 0 and 100) and lethality (values less than 0). For example, a value of 100 means no growth inhibition. A value of 40 would mean 60% growth inhibition. A value of 0 means no net growth over the course of the experiment. A value of −40 would mean 40% lethality. A value of −100 means all cells are dead. FIGS. 1-8 show the mean graph of percent growth against the NCI-60 cell panel for NUCC-0226674, NUCC-0226679, NUCC-0226680, NUCC-0226683, NUCC-0226689, NUCC-0226694, NUCC-0226695, and NUCC-0226698.

SNB-75 = experiment: NCI 60 five-dose screen SNB-75; assay type: cell-based; conditions: Homo sapiens
UACC-257 = experiment: NCI 60 five-dose screen UACC-257; assay type: cell-based; conditions: Homo sapiens
786-0 = experiment: NCI 60 five-dose screen 786-0; assay type: cell-based; conditions: Homo sapiens
SF-539 = experiment: NCI 60 five-dose screen SF-539; assay type: cell-based; conditions: Homo sapiens
SK-MEL-28 = experiment: NCI 60 five-dose screen SK-MEL-28; assay type: cell-based; conditions: Homo sapiens
MDA-MB-231/ATCC = experiment: NCI 60 five-dose screen MDA-MB-231/ATCC; assay type: cell-based; conditions: Homo sapiens
COLO 205 = experiment: NCI 60 five-dose screen COLO 205; assay type: cell-based; conditions: Homo sapiens
NCI-H460 = experiment: NCI 60 five-dose screen NCI-H460; assay type: cell-based; conditions: Homo sapiens
IGROV1 = experiment: NCI 60 five-dose screen IGROV1; assay type: cell-based; conditions: Homo sapiens
SN12C = experiment: NCI 60 five-dose screen SN12C; assay type: cell-based; conditions: Homo sapiens
LOX IMVI = experiment: NCI 60 five-dose screen LOX IMVI; assay type: cell-based; conditions: Homo sapiens
UACC-62 = experiment: NCI 60 five-dose screen UACC-62; assay type: cell-based; conditions: Homo sapiens
A549/ATCC = experiment: NCI 60 five-dose screen A549/ATCC; assay type: cell-based; conditions: Homo sapiens
NCI-H226 = experiment: NCI 60 five-dose screen NCI-H226; assay type: cell-based; conditions: Homo sapiens
UO-31 = experiment: NCI 60 five-dose screen UO-31; assay type: cell-based; conditions: Homo sapiens
HOP-62 = experiment: NCI 60 five-dose screen HOP-62; assay type: cell-based; conditions: Homo sapiens
RXF 393 = experiment: NCI 60 five-dose screen RXF 393; assay type: cell-based; conditions: Homo sapiens
HCC-2998 = experiment: NCI 60 five-dose screen HCC-2998; assay type: cell-based; conditions: Homo sapiens
SNB-19 = experiment: NCI 60 five-dose screen SNB-19; assay type: cell-based; conditions: Homo sapiens
U251 = experiment: NCI 60 five-dose screen U251; assay type: cell-based; conditions: Homo sapiens
[1] = read-out: LC50 (the source's name) (converted)

## Fc1ccc(N2CC(Cn3c(C(F)(F)F)cc4c(Cl)ncnc43)C2)c(F)c1 [NUCC-0226695]
MOLT-4
  GI50: 3.09 µM
  IC50: 4.57 µM
  IC (TGI): 8.91 µM
MOLT-4; read-out: LC50 (the source's name)
  CC50: ≥ 100 µM
Full NCI 60 cell panel
  growth inhibition in the One-Dose Screen: significant growth inhibition
SNB-75
  GI50: 12 µM
  IC50: 25.1 µM
  IC (TGI): 24.5 µM
SNB-75; [1]
  CC50: 51.3 µM
UACC-257
  GI50: 3.09 µM
  IC50: 6.46 µM
  IC (TGI): 12 µM
UACC-257; [1]
  CC50: 42.7 µM
786-0
  GI50: 14.8 µM
  IC50: 26.3 µM
  IC (TGI): 28.8 µM
786-0; [1]
  CC50: 57.5 µM
SF-539
  GI50: 13.8 µM
  IC50: 24.5 µM
  IC (TGI): 28.2 µM
SF-539; [1]
  CC50: 58.9 µM
SK-MEL-28
  GI50: 2090 nM
  IC50: 3.63 µM
  IC (TGI): 4.9 µM
SK-MEL-28; [1]
  CC50: 16.6 µM
MDA-MB-231/ATCC
  GI50: 1620 nM
  IC50: 2950 nM
  IC (TGI): 3.09 µM
MDA-MB-231/ATCC; [1]
  CC50: 5.89 µM
COLO 205
  GI50: 15.1 µM
  IC50: 26.9 µM
  IC (TGI): 32.4 µM
COLO 205; [1]
  CC50: 70.8 µM
NCI-H460
  GI50: 3.98 µM
  IC50: 4.68 µM
  IC (TGI): 14.5 µM
NCI-H460; [1]
  CC50: 44.7 µM
IGROV1; IGROV-1
  GI50: 1860 nM
  IC50: 3.24 µM
  IC (TGI): 3.55 µM
IGROV1; IGROV-1, read-out: LC50 (the source's name) (converted)
  CC50: 6.76 µM
SN12C
  GI50: 1950 nM
  IC50: 3.31 µM
  IC (TGI): 5.01 µM
SN12C; [1]
  CC50: 16.2 µM
LOX IMVI
  GI50: 1620 nM
  IC50: 2820 nM
  IC (TGI): 3.02 µM
LOX IMVI; [1]
  CC50: 5.5 µM
UACC-62
  GI50: 3.16 µM
  IC50: 5.62 µM
  IC (TGI): 12.9 µM
UACC-62; [1]
  CC50: 36.3 µM
A549/ATCC
  GI50: 17.4 µM
  IC50: 29.5 µM
  IC (TGI): 35.5 µM
A549/ATCC; [1]
  CC50: 74.1 µM
NCI-H226
  GI50: 14.1 µM
  IC50: 33.9 µM
  IC (TGI): 30.9 µM
NCI-H226; [1]
  CC50: 69.2 µM
UO-31
  GI50: 2690 nM
  IC50: 5.75 µM
  IC (TGI): 10.7 µM
UO-31; [1]
  CC50: 33.1 µM
HOP-62
  GI50: 17 µM
  IC50: 32.4 µM
  IC (TGI): 33.9 µM
HOP-62; [1]
  CC50: 66.1 µM
RXF 393
  GI50: 2090 nM
  IC50: 5.37 µM
  IC (TGI): 5.01 µM
RXF 393; [1]
  CC50: 15.5 µM
HCC-2998
  GI50: 1950 nM
  IC50: 3.47 µM
  IC (TGI): 3.47 µM
HCC-2998; [1]
  CC50: 6.17 µM
SNB-19
  GI50: 15.1 µM
  IC50: 27.5 µM
  IC (TGI): 28.8 µM
SNB-19; [1]
  CC50: 55 µM
U251; U-251
  GI50: 1910 nM
  IC50: 3.24 µM
  IC (TGI): 3.8 µM
U251; U-251, read-out: LC50 (the source's name) (converted)
  CC50: 7.76 µM
